According to patent US20040142972A1, “CNS target modulators” (Hypnion, Inc., priority 2001, published 2004):
Where a chain is given by its changes, count along the chain named. Counter-ions that a name gives are not always drawn. Like-named read-outs stand apart in the source and are kept apart here.

Columns and labels:
histamine receptor, H1 = target: T1, histamine receptor, H1 (Bos taurus, UniProt P30546); assay: H1 binding assay, displacement of [3H]Pyrilamine, bovine cerebellar membranes
T1 construct: from tissue; host or cells: bovine cerebellar membranes (per earlier reading)
T1 sequence (P30546 whole entry): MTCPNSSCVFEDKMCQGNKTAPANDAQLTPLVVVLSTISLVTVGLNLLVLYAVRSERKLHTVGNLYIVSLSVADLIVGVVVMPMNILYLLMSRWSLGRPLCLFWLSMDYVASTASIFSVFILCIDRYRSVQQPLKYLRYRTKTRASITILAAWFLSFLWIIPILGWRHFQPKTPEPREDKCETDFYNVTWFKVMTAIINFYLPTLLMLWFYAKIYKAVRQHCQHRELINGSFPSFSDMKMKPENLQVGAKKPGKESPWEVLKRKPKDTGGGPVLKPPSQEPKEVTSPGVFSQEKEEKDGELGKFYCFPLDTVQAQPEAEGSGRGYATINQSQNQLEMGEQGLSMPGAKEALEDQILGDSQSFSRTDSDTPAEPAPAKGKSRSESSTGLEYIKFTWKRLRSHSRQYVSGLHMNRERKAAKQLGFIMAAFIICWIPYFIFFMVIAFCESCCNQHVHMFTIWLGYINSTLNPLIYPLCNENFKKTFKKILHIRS

[1] = target: T2, cloned muscarinic - M2 binding site (Homo sapiens, UniProt P08172); assay: Muscarinic M2 binding assay, [3H]-Scopolamine N-Methyl Chloride, human recombinant expressed in CHO cells
T2 construct: expressed in transfected cells; host or cells: CHO cells
T2 sequence (P08172 1-466): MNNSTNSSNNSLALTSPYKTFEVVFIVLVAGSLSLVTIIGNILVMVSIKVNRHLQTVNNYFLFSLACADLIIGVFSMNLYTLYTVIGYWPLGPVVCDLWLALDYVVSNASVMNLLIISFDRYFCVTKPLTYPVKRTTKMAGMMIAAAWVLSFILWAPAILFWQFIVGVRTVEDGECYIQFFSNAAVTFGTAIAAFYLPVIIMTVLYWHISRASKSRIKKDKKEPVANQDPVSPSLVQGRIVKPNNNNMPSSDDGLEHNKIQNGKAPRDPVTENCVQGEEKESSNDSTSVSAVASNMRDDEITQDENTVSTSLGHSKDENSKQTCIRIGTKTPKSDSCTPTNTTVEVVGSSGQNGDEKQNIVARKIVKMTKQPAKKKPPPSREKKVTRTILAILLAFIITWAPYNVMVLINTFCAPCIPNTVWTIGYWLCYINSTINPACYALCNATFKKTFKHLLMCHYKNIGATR

[2] = target: T3, cloned muscarinic - M3 binding site (Homo sapiens, UniProt P20309); assay: Muscarinic M3 binding assay, [3H]-Scopolamine N-Methyl Chloride, human recombinant expressed in CHO cells
T3 construct: expressed in transfected cells; host or cells: CHO cells
T3 sequence (P20309 whole entry): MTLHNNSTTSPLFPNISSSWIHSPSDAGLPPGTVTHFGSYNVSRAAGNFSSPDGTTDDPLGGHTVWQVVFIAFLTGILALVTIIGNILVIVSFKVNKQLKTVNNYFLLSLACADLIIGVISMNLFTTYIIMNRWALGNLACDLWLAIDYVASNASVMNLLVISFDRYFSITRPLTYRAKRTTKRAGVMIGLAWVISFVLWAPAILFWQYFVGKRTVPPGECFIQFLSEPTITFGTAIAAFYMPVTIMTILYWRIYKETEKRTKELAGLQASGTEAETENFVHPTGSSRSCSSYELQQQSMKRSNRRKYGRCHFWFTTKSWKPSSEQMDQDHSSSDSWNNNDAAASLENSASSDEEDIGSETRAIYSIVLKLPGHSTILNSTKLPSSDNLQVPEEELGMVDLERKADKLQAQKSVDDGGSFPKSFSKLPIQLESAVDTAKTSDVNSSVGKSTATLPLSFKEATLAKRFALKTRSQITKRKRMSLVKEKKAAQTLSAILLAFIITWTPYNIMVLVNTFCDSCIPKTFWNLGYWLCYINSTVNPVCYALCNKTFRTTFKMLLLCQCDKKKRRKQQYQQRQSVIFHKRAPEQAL

[3] = target: T4, cloned muscarinic - M1 binding site (Homo sapiens, UniProt P11229); assay: Muscarinic M1 binding assay, [3H]-Scopolamine N-Methyl Chloride, human recombinant expressed in CHO cells
T4 construct: expressed in transfected cells; host or cells: CHO cells
T4 sequence (P11229 1-460): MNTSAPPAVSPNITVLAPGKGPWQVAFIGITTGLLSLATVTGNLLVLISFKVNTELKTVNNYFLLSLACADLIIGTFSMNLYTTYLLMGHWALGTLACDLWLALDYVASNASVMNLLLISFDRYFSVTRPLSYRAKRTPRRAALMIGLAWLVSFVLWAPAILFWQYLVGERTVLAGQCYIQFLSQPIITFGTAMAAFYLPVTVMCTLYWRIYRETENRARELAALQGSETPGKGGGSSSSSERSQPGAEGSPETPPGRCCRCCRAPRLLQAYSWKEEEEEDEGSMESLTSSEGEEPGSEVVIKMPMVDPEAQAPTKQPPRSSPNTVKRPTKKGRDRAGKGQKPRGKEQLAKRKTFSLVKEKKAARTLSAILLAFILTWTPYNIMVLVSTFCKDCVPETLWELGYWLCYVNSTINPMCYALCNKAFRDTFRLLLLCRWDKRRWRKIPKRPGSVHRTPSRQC

muscarinic1 binding site = target: T5, muscarinic1 binding site (Bos taurus, UniProt F1N5C5); assay: biochemical
T5 sequence (F1N5C5 1-460): T4 sequence (P11229 1-460) with T206A, A265T, T315A, K331R, D335E

Male Wistar rats = assay: Sleep-wakefulness, locomotor activity and body temperature monitoring (SCORE-2000) in rats
[4] = Table 6, read-out: Receptor Binding Data (Ki nM) H1
[5] = Table 6, human recombinant, read-out: Receptor Binding Data (Ki nM) M2
[6] = Table 6, human recombinant, read-out: Receptor Binding Data (Ki nM) M3
[7] = Table 6, human recombinant, read-out: Receptor Binding Data (Ki nM) M1
[8] = Series 11 compounds, Table 5, unit inferred
[9] = Series 11 compounds, Table 5, unit inferred, read-out: H1 Ki
[10] = Series 11 compounds, Table 5, unit inferred, receptor source not given
[11] = Series 11 compounds, Table 5, unit inferred, receptor source not given, read-out: M2 Ki
[12] = Series 11 compounds, Table 5, unit inferred, receptor source not given, read-out: M3 Ki
[13] = Series 11 compounds, Table 5, unit inferred, receptor source not given, read-out: M1 Ki

In the case of `O=C(O)CCCN1CCC(OC(c2ccccc2)c2ccccc2)CC1` [Compound 53a], the Ki (histamine receptor, H1; [4]) is reported as 16.1 nM, the Ki [1, 5] is reported as greater than 10000 nM and the Ki [2, 6] is reported as greater than 10000 nM. It also gave a Ki [3, 7] greater than 10000 nM.

`O=C(CCN1CCC(=C(c2ccccc2)c2ccccc2)CC1)O[C@H]1CCOC1` [Compound 11g] was tested, and the IC50 (histamine receptor, H1; [8]) was 196 nM and the Ki (histamine receptor, H1; [9]) was 86.1 nM.

`O=C(CCN1CCC(=C(c2ccccc2)c2ccccc2)CC1)OC1CCOCC1` [Compound 11i] was tested, and the IC50 (histamine receptor, H1; [8]) was 200 nM, the Ki (histamine receptor, H1; [9]) was 87.8 nM and the IC50 [1, 10] was 221 nM. The Ki [1, 11] was 72 nM, the IC50 [2, 10] was 2330 nM and the Ki [2, 12] was 1030 nM. The IC50 [3, 10] was 221 nM and the Ki [3, 13] was 17 nM.

For `O=C(O)CCN1CCC(=C2c3ccccc3COc3ccccc32)CC1` [Compound 8a], the Ki (histamine receptor, H1; [4]) was 62.5 nM, the Ki [1, 5] was greater than 10000 nM and the Ki [2, 6] was greater than 10000 nM. It also gave a Ki [3, 7] greater than 10000 nM.

With `CN1[C@@H]2CC[C@H]1C[C@@H](OC(=O)C(CO)c1ccccc1)C2` (stereo partly drawn) [Atropine] the Ki (muscarinic1 binding site) was 0.4 nM.

`CC(C)(CN1CCC(=C2c3ccccc3COc3ccccc32)CC1)C(=O)O` [Compound 74a] was tested, and the Ki (histamine receptor, H1; [4]) was 109 nM, the Ki [1, 5] was greater than 10000 nM and the Ki [2, 6] was greater than 10000 nM. It also gave a Ki [3, 7] greater than 10000 nM.

`Cc1ccc(/C(=C\CN2CCCC2)c2cccc(C(=O)O)n2)cc1` [Compound 16a] gave a Ki [1] greater than 10000 nM, a Ki [2, 6] greater than 10000 nM and a Ki [3, 7] greater than 10000 nM.

Work on `CC(C)COC(=O)CCN1CCC(=C(c2ccccc2)c2ccccc2)CC1` [Compound 11e, Isobutyl 3-[4-(diphenylmethylidene)piperidin-1-yl]propanoate] yielded a Ki (histamine receptor, H1; [9]) of 279 nM, an IC50 [1, 10] of 3550 nM and a Ki [1, 11] of 1150 nM. It also gave an IC50 [2, 10] of 2590 nM, a Ki [2, 12] of 710 nM and an IC50 [3, 10] of 3760 nM. For the same molecule, the Ki [3, 13] was 289 nM.

Work on `COc1ccccc1CNCCCCCCNCCCCCCCCNCCCCCCNCc1ccccc1OC` [Methoctramine, reference compound] yielded a Ki ([2]; reference compounds, M3 human recombinant in CHO cells, read-out: Ki) of 700 nM and a Ki [3] of 29.7 nM.

For `O=C(CCN1CCC(=C(c2ccccc2)c2ccccc2)CC1)OC1CCOC1` (stereo not drawn) [Compound 11h], the IC50 (histamine receptor, H1; [8]) was 201 nM, the Ki (histamine receptor, H1; [9]) was 88.3 nM and the IC50 [1, 10] was 2140 nM. The Ki [1, 11] was 697 nM, the IC50 [2, 10] was 2200 nM and the Ki [2, 12] was 603 nM. It also gave an IC50 [3, 10] of 2240 nM and a Ki [3, 13] of 172 nM.

Molecule `Cc1scc2c1N(C(=O)CN1CCN(C)CC1)c1ccccc1NC2=O` [Telenzepine] has a Ki (muscarinic1 binding site) of 64.5 nM.

With `CC(C)(CCN1CCC(=C2c3ccccc3COc3ccccc32)CC1)C(=O)O` [Compound 75a] the Ki (histamine receptor, H1; [4]) was 47.9 nM, the Ki [1, 5] was 3330 nM and the Ki [2, 6] was greater than 10000 nM. For the same molecule, the Ki [3, 7] was greater than 10000 nM.

`CC(C)OC(=O)CN1CCC(=C2c3ccccc3COc3ccccc32)CC1` [dox7d-oxalate] gave a Ki (histamine receptor, H1; [4]) of 198 nM, a Ki [1, 5] greater than 10000 nM and a Ki [2, 6] greater than 10000 nM. The Ki [3, 7] was greater than 10000 nM.

`O=C(CCN1CCC(=C(c2ccccc2)c2ccccc2)CC1)OC1CCCC1.O=C(O)C(=O)O` [Compound 11f, Cyclopentyl 3-[4-(diphenylmethylidene)piperidin-1-yl]propanoate, oxalic acid salt] showed a Ki (histamine receptor, H1; [9]) of 416 nM, an IC50 [3, 10] of 2210 nM and a Ki [3, 13] of 170 nM. The “cumulative effect on total sleep time (TST) during the initial 5 hours post-treatment, relative to baseline” value (Male Wistar rats; 11f 30 mg/kg versus Zolpidem 10 mg/kg, rats, FIG. 1(b)) was “induced more TST than Zolpidem”, the locomotor activity (Male Wistar rats; male Wistar rats, IP at CT-18, 10 and 30 mg/kg) was “reduction in locomotor activity” and the “sleep continuity, as assessed by sleep bout length” value (Male Wistar rats; male Wistar rats, IP at CT-18, 10 and 30 mg/kg, relative to vehicle control) was “increased sleep continuity”. For the same molecule, the total sleep time (Male Wistar rats; male Wistar rats, IP at CT-18, both 30 mg/kg and 10 mg/kg) was “significantly increased total sleep time for 3 hours post-treatment” and the “soporific effects (nonREM sleep time, sleep continuity)” value (Male Wistar rats; male Wistar rats, intraperitoneal bolus at CT-18, 11f 30 and 10 mg/kg, 6f and 15f 30 mg/kg) was “robust soporific effects”.

`O=C(O)CCCN1CCC(=C2c3ccccc3COc3ccccc32)CC1` [Compound 73a] showed a Ki (histamine receptor, H1; [4]) of 42.8 nM, a Ki [1, 5] greater than 10000 nM and a Ki [2, 6] greater than 10000 nM. It also gave a Ki [3, 7] greater than 10000 nM.

With `Cc1ccc(-c2nc3ccc(C)cn3c2CC(=O)N(C)C)cc1` [Ambien, Zolpidem, reference compound] the “Motor Inhibition” value (Male Wistar rats; 30 mg/kg IP, at CT-18, rats) was “YES”, the “REM Inhibition” value (Male Wistar rats; 30 mg/kg IP, at CT-18, rats) was “YES” and the “Rebound Insomnia” value (Male Wistar rats; 30 mg/kg IP, at CT-18, rats) was “YES”.

Molecule `O=C(O)CCN1CCC(=C(c2ccccc2)c2ccccc2)CC1` [Compound 11a] has a Ki (histamine receptor, H1; [9]) of 119 nM, an IC50 [1, 10] greater than 10000 nM and a Ki [1, 11] greater than 10000 nM. For the same molecule, the IC50 [2, 10] was greater than 10000 nM, the Ki [2, 12] was greater than 10000 nM and the IC50 [3, 10] was greater than 10000 nM. It also gave a Ki [3, 13] greater than 10000 nM.

`CN(C)CCCSC(=N)N` [Dimaprit, reference compound] showed a Ki (histamine receptor, H1; reference compounds, bovine cerebellar membranes, [3H]Pyrilamine 2.0 nM, read-out: Ki) greater than 10000 nM.

For `O=C(O)CN1CCC(=C2c3ccccc3COc3ccccc32)CC1` [Compound 7a], the Ki (histamine receptor, H1; [4]) was 55.1 nM.

In the case of `CC(C)OC(=O)CCN1CCC(=C(c2ccccc2)c2ccccc2)CC1` [Compound 11d, Isopropyl 3-[4-(diphenylmethylidene)piperidin-1-yl]propanoate], the Ki (histamine receptor, H1; [9]) is reported as 147 nM, the IC50 [1, 10] is reported as 829 nM and the Ki [1, 11] is reported as 270 nM. It also gave an IC50 [2, 10] of 6080 nM, a Ki [2, 12] of 2700 nM and an IC50 [3, 10] of 8000 nM. For the same molecule, the Ki [3, 13] was 696 nM.

`O=C(O)CCN1CCC(OC(c2ccccc2)c2ccccc2)CC1` [Compound 6a, 3-[4-(dipbenylmethoxy)piperidin-1-yl]propanoic acid hydrochloride] showed a Ki (histamine receptor, H1; [4]) of 56.1 nM, a Ki [1, 5] greater than 10000 nM and a Ki [2, 6] of 8900 nM. It also gave a Ki [3, 7] greater than 10000 nM.
